Data: publication PMC9452764, “Pseudomonas syringae pv. tomato infection of tomato plants is mediated by GABA and L‐Pro chemoperception” (Molecular Plant Pathology, 2022)
Read-outs that look alike come from different tables or passages of the source.

Target: T1, PsPto‐PscC‐LBD (Pseudomonas syringae group genomosp. 3, UniProt Q883C0)
T1 construct: gene PSPTO_2448; pET28b(+) derivative p2448-LBD, HisTrap purified, E. coli BL21(AI)
Assay: isothermal titration calorimetry
Format: binding

T1 sequence (Q883C0 entry or part of it): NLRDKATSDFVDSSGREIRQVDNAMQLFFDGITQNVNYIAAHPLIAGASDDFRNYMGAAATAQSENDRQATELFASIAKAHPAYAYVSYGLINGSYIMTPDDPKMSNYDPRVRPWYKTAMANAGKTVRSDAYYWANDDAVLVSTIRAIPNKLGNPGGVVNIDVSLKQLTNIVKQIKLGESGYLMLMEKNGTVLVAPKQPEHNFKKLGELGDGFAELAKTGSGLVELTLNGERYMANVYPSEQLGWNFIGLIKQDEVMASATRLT

Structure (SMILES)	Kd (read-out: K D)	Kd
NCCCC(=O)O [GABA]	1.87 ± 0.3 µM	
O=C(O)[C@@H]1CCCN1 [L‐Pro]		4.52 ± 0.4 µM
